Like-named read-outs stand apart in the source and are kept apart here.
How the values were obtained:
Hey = assay: Cell viability, Hey ovary cancer cells; format: cell-based
H460 tumors = assay: In vivo antitumor activity, subcutaneous H460 tumors in nude mice
Method: The inventors have investigated the in vivo antitumor activity of Oncrasin compounds, such as Oncrasin-1 and Oncrasin-27, both are available at relatively larger scale. Subcutaneous tumors were established in 4- to 6-week-old female nude mice (Charles River Laboratories Inc., Wilmington, Mass.) by the inoculation of 1.5×10^6 H460 cells into the dorsal flank of each mouse. After the tumors grew to 5 mm in diameter, mice were treated with intraperitoneal injections of Oncrasin-1 (for 10 days) or Oncrasin-27 (for 3 days, because of limited availability of the compound) at a dose of 100 mg/kg/injection daily (the agents were dissolved in 0.5 mL of solvent containing 10% DMSO, 10% Cremophor EL, and 10% ethanol), or they were given intraperitoneal injections of solvent alone. The tumor volumes were calculated using the formula a×b^2×0.5, where a and b represent the larger and smaller diameters, respectively (Gu et al., 2000; Terashi et al., 2005). Mice were killed when the tumors grew to 1.5 cm in diameter. To evaluate the toxicity of treatment, blood samples were collected from the tail vein before treatment and 2 days after the last treatment, and serum alanine transaminase, aspartate transaminase, and creatinine levels were determined as described elsewhere (Gu et al., 2000; Terashi et al., 2005). Hematopoietic toxicity was monitored by counting red blood cells, white blood cells, and platelets (Gu et al., 2002; Terashi et al., 2005). The lung, heart, liver, intestine, spleen, and kidney were harvested after the mice were killed to test the toxic effects of both compounds on these organs. The histopathologic analysis was performed in the histology laboratory of the Department of Veterinary Medicine and Surgery at M. D. Anderson Cancer Center. […] The mean survivals for mice treated with solvent, Oncrasin-1, and Oncrasin-27 were 24, 32, and 34 days, respectively.

[1] = In vivo toxicity assay in tumor-bearing nude mice
[2] = system: panel of 60 cancer cell lines; assay: NCI Developmental Therapeutics Program in-vitro testing, panel of 60 cancer cell lines (whole panel); format: cell-based
SF-268 = assay: NCI in-vitro testing, SF-268 (CNS Cancer)
LOX IMVI = assay: NCI in-vitro testing, LOX IMVI (Melanoma)
HL-60(TB) = assay: NCI in-vitro testing, HL-60(TB) (Leukemia)
SK-MEL-28 = assay: NCI in-vitro testing, SK-MEL-28 (Melanoma)
UO-31 = assay: NCI in-vitro testing, UO-31 (Renal Cancer)
HCT-15 = assay: NCI in-vitro testing, HCT-15 (Colon Cancer)
COLO 205 = assay: NCI in-vitro testing, COLO 205 (Colon Cancer)
MDA-MB-231/ATCC = assay: NCI in-vitro testing, MDA-MB-231/ATCC (Breast Cancer)
NCI-H522 = assay: NCI in-vitro testing, NCI-H522 (Non-Small Cell Lung Cancer)

For O=Cc1cn(Cc2ccc(Cl)cc2)c2ccccc12 [Oncrasin K001, 1H-Indole-3-carboxaldehyde, 1-[(4-chlorophenyl)methyl]-(9CI)], the “IC50 (−LogM)” value (Hey) was 4.6 −LogM, the “suppression of growth of tumor volume in comparison with solvent” value (H460 tumors; 100 mg/kg/injection daily i.p., Oncrasin-1 10 days, Oncrasin-27 3 days) was 75.4% and the mean survival (H460 tumors; 100 mg/kg/injection daily i.p., solvent 24 days) was 32 days. For the same molecule, the “mean tumor volume vs solvent-treated mice” value (H460 tumors; p<0.05, 5 mice per group) was “differed significantly”, the “time course of toxicity in T29Kt1 cells” value (T29Kt1 cells; 33 μM) was “time-dependent toxicity” and the “concentration that effectively kills T29K cells” value (T29Kt1 cells; K-ras mutant) was 10 µM. For the same molecule, the “IC50 in T29k cells” value (T29Kt1 cells; Table 1, value is the negative log10 of mol/L) was 5.6, the IC50 (T29Kt1 cells; read-out: IC50, T29Kt1 cells, dose-dependent cytotoxicity) was 2.5 µM and the “selectivity for T29Kt1 (T29K) cells in dose-response study” value (T29Kt1 cells; vs T29 and T29Ht1, 0.1 μM to 33 μM) was “highly selective”. The “serum ALT, AST, and creatinine levels” value ([1]; 2 days after the last treatment) was “within the normal range”, the “histopathologic examination of organs” value ([1]; lung, heart, stomach, small intestine, liver, spleen, pancreas, kidney) was “no significant lesions” and the blood cell counts ([1]; red blood cells, white blood cells, platelets) was “all in the normal ranges”. The body weights ([1]; vs solvent) was “No difference”.
In the case of OCc1cn(Cc2ccc(Cl)cc2)c2ccccc12 [Oncrasin K060, 1H-Indole-3-methanol, 1-[(4-chlorophenyl)methyl]-], the IC50 (Hey) is reported as 10 µM, the “anticancer spectrum in NCI panel” value ([2]; leukemia, non small lung, colon, melanoma, ovarian, renal, breast) is reported as “active in a number of cancer cell lines” and the GI50 ([2]; of 54 cancer cell lines tested, read-out: medium 50% growth inhibition (GI50) concentration) is reported as 1.12 µM. The GI50 (SF-268; Homo sapiens, SF-268) was 12.4 µM, the CC50 (SF-268; Homo sapiens, SF-268, read-out: LC50) was over 100 µM and the GI50 (SF-268; Homo sapiens, SF-268, read-out: Log10 GI50 (converted)) was 12.3 µM. For the same molecule, the TGI (SF-268; SF-268) was 4.58E−5 Molar, the “Percent Growth” value (SF-268; SF-268, Log10 Concentration −4.0 Molar) was −30% and the “Percent Growth” value (SF-268; SF-268, Log10 Concentration −5.0 Molar) was 56%. The “Percent Growth” value (SF-268; SF-268, Log10 Concentration −6.0 Molar) was 94%, the “Percent Growth” value (SF-268; SF-268, Log10 Concentration −7.0 Molar) was 98% and the “Percent Growth” value (SF-268; SF-268, Log10 Concentration −8.0 Molar) was 106%. For the same molecule, the TGI (LOX IMVI) was 1.58E−6 Molar, the GI50 (LOX IMVI; Homo sapiens) was 4.48 µM and the CC50 (LOX IMVI; Homo sapiens, read-out: LC50) was 47.2 µM. The GI50 (LOX IMVI; Homo sapiens, read-out: Log10 GI50 (converted)) was 4.47 µM, the “Percent Growth” value (LOX IMVI; Log10 Concentration −4.0 Molar) was −86% and the “Percent Growth” value (LOX IMVI; Log10 Concentration −5.0 Molar) was 26%. The “Percent Growth” value (LOX IMVI; Log10 Concentration −6.0 Molar) was 96%, the “Percent Growth” value (LOX IMVI; Log10 Concentration −7.0 Molar) was 96% and the “Percent Growth” value (LOX IMVI; Log10 Concentration −8.0 Molar) was 102%. The TGI (HL-60(TB); HL-60(TB)) was 1.28E−5 Molar, the “Percent Growth” value (HL-60(TB); HL-60(TB), Log10 Concentration −4.0 Molar) was −78% and the “Percent Growth” value (HL-60(TB); HL-60(TB), Log10 Concentration −5.0 Molar) was 9%. The “Percent Growth” value (HL-60(TB); HL-60(TB), Log10 Concentration −6.0 Molar) was 89%, the “Percent Growth” value (HL-60(TB); HL-60(TB), Log10 Concentration −7.0 Molar) was 85% and the “Percent Growth” value (HL-60(TB); HL-60(TB), Log10 Concentration −8.0 Molar) was 95%. For the same molecule, the GI50 (HL-60(TB); Homo sapiens, HL-60) was 2.1 µM, the CC50 (HL-60(TB); Homo sapiens, HL-60, read-out: LC50) was 4.31 µM and the GI50 (HL-60(TB); Homo sapiens, HL-60, read-out: Log10 GI50 (converted)) was 2.09 µM. For the same molecule, the GI50 (SK-MEL-28; Homo sapiens, SK-MEL-28) was 18 µM, the CC50 (SK-MEL-28; Homo sapiens, SK-MEL-28, read-out: LC50) was over 100 µM and the GI50 (SK-MEL-28; Homo sapiens, SK-MEL-28, read-out: Log10 GI50 (converted)) was 17.8 µM. The TGI (SK-MEL-28; SK-MEL-28) was 4.44E−5 Molar, the “Percent Growth” value (SK-MEL-28; SK-MEL-28, Log10 Concentration −4.0 Molar) was −15% and the “Percent Growth” value (SK-MEL-28; SK-MEL-28, Log10 Concentration −5.0 Molar) was 82%. The “Percent Growth” value (SK-MEL-28; SK-MEL-28, Log10 Concentration −6.0 Molar) was 93%, the “Percent Growth” value (SK-MEL-28; SK-MEL-28, Log10 Concentration −7.0 Molar) was 99% and the “Percent Growth” value (SK-MEL-28; SK-MEL-28, Log10 Concentration −8.0 Molar) was 93%. For the same molecule, the GI50 (UO-31; Homo sapiens, UO-31) was 1.58 µM, the CC50 (UO-31; Homo sapiens, UO-31, read-out: LC50) was over 100 µM and the GI50 (UO-31; Homo sapiens, UO-31, read-out: Log10 GI50 (converted)) was 1.58 µM. For the same molecule, the TGI (UO-31; UO-31) was 1.55E−5 Molar, the “Percent Growth” value (UO-31; UO-31, Log10 Concentration −4.0 Molar) was −42% and the “Percent Growth” value (UO-31; UO-31, Log10 Concentration −5.0 Molar) was 10%. The “Percent Growth” value (UO-31; UO-31, Log10 Concentration −6.0 Molar) was 60%, the “Percent Growth” value (UO-31; UO-31, Log10 Concentration −7.0 Molar) was 80% and the “Percent Growth” value (UO-31; UO-31, Log10 Concentration −8.0 Molar) was 90%. The TGI (HCT-15; HCT-15) was 2.58E−5 Molar, the “Percent Growth” value (HCT-15; HCT-15, Log10 Concentration −4.0 Molar) was −31% and the “Percent Growth” value (HCT-15; HCT-15, Log10 Concentration −5.0 Molar) was 21%. The “Percent Growth” value (HCT-15; HCT-15, Log10 Concentration −6.0 Molar) was 69%, the “Percent Growth” value (HCT-15; HCT-15, Log10 Concentration −7.0 Molar) was 90% and the “Percent Growth” value (HCT-15; HCT-15, Log10 Concentration −8.0 Molar) was 99%. The GI50 (HCT-15; Homo sapiens, HCT-15) was 2.52 µM, the CC50 (HCT-15; Homo sapiens, HCT-15, read-out: LC50) was over 100 µM and the GI50 (HCT-15; Homo sapiens, HCT-15, read-out: Log10 GI50 (converted)) was 2.51 µM. The TGI (COLO 205; COLO 205) was 1.58E−5 Molar, the “Percent Growth” value (COLO 205; COLO 205, Log10 Concentration −4.0 Molar) was −72% and the “Percent Growth” value (COLO 205; COLO 205, Log10 Concentration −5.0 Molar) was 18%. For the same molecule, the “Percent Growth” value (COLO 205; COLO 205, Log10 Concentration −6.0 Molar) was 61%, the “Percent Growth” value (COLO 205; COLO 205, Log10 Concentration −7.0 Molar) was 93% and the “Percent Growth” value (COLO 205; COLO 205, Log10 Concentration −8.0 Molar) was 98%. It also gave a GI50 (COLO 205; Homo sapiens, COLO 205) of 1.05 µM, a CC50 (COLO 205; Homo sapiens, COLO 205, read-out: LC50) of 56.9 µM and a GI50 (COLO 205; Homo sapiens, COLO 205, read-out: Log10 GI50 (converted)) of 1.05 µM. The GI50 (MDA-MB-231/ATCC; Homo sapiens, MDA-MB-231) was 11 µM, the CC50 (MDA-MB-231/ATCC; Homo sapiens, MDA-MB-231, read-out: LC50) was over 100 µM and the GI50 (MDA-MB-231/ATCC; Homo sapiens, MDA-MB-231, read-out: Log10 GI50 (converted)) was 11 µM. For the same molecule, the TGI (MDA-MB-231/ATCC; MDA-MB-231/ATCC) was 4.23E−5 Molar, the “Percent Growth” value (MDA-MB-231/ATCC; MDA-MB-231/ATCC, Log10 Concentration −4.0 Molar) was −32% and the “Percent Growth” value (MDA-MB-231/ATCC; MDA-MB-231/ATCC, Log10 Concentration −5.0 Molar) was 53%. The “Percent Growth” value (MDA-MB-231/ATCC; MDA-MB-231/ATCC, Log10 Concentration −6.0 Molar) was 109%, the “Percent Growth” value (MDA-MB-231/ATCC; MDA-MB-231/ATCC, Log10 Concentration −7.0 Molar) was 120% and the “Percent Growth” value (MDA-MB-231/ATCC; MDA-MB-231/ATCC, Log10 Concentration −8.0 Molar) was 105%. For the same molecule, the TGI (NCI-H522) was 1.24E−5 Molar, the GI50 (NCI-H522; Homo sapiens, NCI-H522) was 2.41 µM and the CC50 (NCI-H522; Homo sapiens, NCI-H522, read-out: LC50) was 51 µM. The GI50 (NCI-H522; Homo sapiens, NCI-H522, read-out: Log10 GI50 (converted)) was 2.4 µM, the “Percent Growth” value (NCI-H522; Log10 Concentration −4.0 Molar) was −74% and the “Percent Growth” value (NCI-H522; Log10 Concentration −5.0 Molar) was 7%. The “Percent Growth” value (NCI-H522; Log10 Concentration −6.0 Molar) was 76%, the “Percent Growth” value (NCI-H522; Log10 Concentration −7.0 Molar) was 82% and the “Percent Growth” value (NCI-H522; Log10 Concentration −8.0 Molar) was 91%.

— patent US8883841B2, “Oncogenic ras-specific cytotoxic compound and methods of use thereof” (The Board of Regents of the University of Texas System, priority 2005, dated 2014)
